Source: patent US9505727B2 (THE JOHNS HOPKINS UNIVERSITY, priority 2013, dated 2016)

Columns and labels:
hNav1.3 = target: T1, hNav1.3 (Homo sapiens, UniProt Q9NY46); test: Two-electrode voltage-clamp of hNav1.3 (+β1) in Xenopus oocytes; assay type: cell-based; conditions: for Effect on hNav1.3 opening/gating, in words: 100 μM, versus DMSO; for Inactivation (V1/2) hNav1.3 / Activation (V1/2) hNav1.3: 100 μM drug; for Inactivation (V1/2) hNav1.3: steady-state inactivation; for Activation (V1/2) hNav1.3: ≤1% DMSO
T1 construct: host or cells: Xenopus oocytes (cRNA injection)

hNav1.1 = target: T2, hNav1.1 (Homo sapiens, UniProt P35498); test: Two-electrode voltage-clamp of hNav1.1 (+β1) in Xenopus oocytes; assay type: cell-based; conditions: for Effect on hNav1.1 opening (G/Gmax), in words / Effect on hNav1.1 steady-state inactivation, in words / Effect on hNav1.1 persistent current / Depolarizing shift in hNav1.1 channel activation voltage: 100 μM; for Effect on hNav1.1 opening (G/Gmax), in words / Depolarizing shift in hNav1.1 channel activation voltage: versus DMSO; for Inactivation (V1/2) hNav1.1 / Activation (V1/2) hNav1.1: 100 μM drug; for Inactivation (V1/2) hNav1.1: steady-state inactivation; for Activation (V1/2) hNav1.1: ≤1% DMSO, oocytes incubated at least one hour; for Effect on hNav1.1 persistent current: end of 50 ms test pulse
T2 construct: host or cells: Xenopus oocytes (cRNA injection)

hNav1.6 = target: T3, hNav1.6 (Homo sapiens, UniProt Q9UQD0); test: Two-electrode voltage-clamp of hNav1.6 (+β1) in Xenopus oocytes; assay type: cell-based; conditions: for Inactivation (V1/2) hNav1.6 / Activation (V1/2) hNav1.6: 100 μM drug; for Inactivation (V1/2) hNav1.6: steady-state inactivation; for Activation (V1/2) hNav1.6: ≤1% DMSO
T3 construct: host or cells: Xenopus oocytes (cRNA injection)

hNav1.2 = target: T4, hNav1.2 (Homo sapiens, UniProt Q99250); test: Two-electrode voltage-clamp of hNav1.2 (+β1) in Xenopus oocytes; assay type: cell-based; conditions: for Effect on hNav1.2 opening/gating, in words: 100 μM, versus DMSO; for Inactivation (V1/2) hNav1.2 / Activation (V1/2) hNav1.2: 100 μM drug; for Inactivation (V1/2) hNav1.2: steady-state inactivation; for Activation (V1/2) hNav1.2: ≤1% DMSO
T4 construct: host or cells: Xenopus oocytes (cRNA injection)

[1] = test system: picrotoxin-induced seizures in male Crl:CF1 mice; test: Picrotoxin seizure induction; assay type: in vivo, mouse; conditions: 75 mg/kg ip
Procedure: (§1) Animal husbandry and drug administration. Male Crl:CF1 mice (10-12 weeks old, Charles River) were housed under a 12 hour light-dark cycle with free access to food and water and all experiments were carried out between 10 am and 4 pm. 1-[phenyl-methyl]-1H-1,2,3-triazole-4-carboxamide-5-methyl (Compound B) (Sigma Aldrich) was suspended in a 40% solution of cyclodextrin (Sigma Aldrich) in sterile saline (0.9%) and 15 minutes prior to each seizure induction paradigm, 75 mg/kg of compound B was administered via intraperitoneal injection (ip) injection. Vehicle treated animals were similarly administrated 40% cyclodextrin and served as the controls for each experiment. The Emory University Institutional Animal Care and Use Committee approved all experimental protocols involving mice.
Seizure induction paradigms and analyses. Picrotoxin seizure induction—15 minutes prior to i.p. injection of picrotoxin (10 mg/kg, Sigma Aldrich), mice were administered vehicle or compound B (n=12 per group). Latencies to the first myoclonic jerk, forelimb clonus, and generalized tonic-clonic seizure were compared between compound B and vehicle-treated mice. The myoclonic jerk is characterized by a sudden jerk of the upper body whereas forelimb clonus involves rapid movement of the forelimbs for at least 5 s. Finally, the generalized tonic-clonic seizure involves the loss of postural control with rapid movement of the limbs for at least 5 s.
Statistical analysis. A Student's t-test was used to identify statistically significant differences in latencies between vehicle- and compound B-treated groups for each seizure phenotype following administration of flurothyl and picrotoxin. […] All data are presented as the mean±s.e.m.; p values <0.05 were considered significant.

[2] = test system: flurothyl-induced seizures in male Crl:CF1 mice; test: Flurothyl seizure induction; assay type: in vivo, mouse; conditions: 75 mg/kg ip, p=0.6
Procedure: as §1
Flurothyl Seizure induction. Latencies to flurothyl-induced seizures were determined as previously described (Neurobiol Dis 49C, 211-220 (2012)). Briefly, flurothyl (2,2,2-trifluroethylether; Sigma Aldrich) was dispensed at a rate of 20 μl/minute into a Plexiglas chamber and latencies to three behavioral phenotypes were compared between vehicle-treated and compound B-treated (75 mg/kg) mice (n=12 per group): 1) the first myoclonic jerk, 2) a generalized tonic-clonic seizure, and 3) a generalized tonic-clonic seizure with tonic extension. […]

[3] = test system: 6 Hz psychomotor seizures in male Crl:CF1 mice; test: 6 Hz psychomotor seizure induction; assay type: in vivo, mouse; conditions: 17 mA
Procedure: as §1
6 Hz psychomotor seizure induction. Topical anesthetic (0.5% tetracaine hydrochloride ophthalmic solution) was applied to the cornea 30 minutes before testing. Fifteen minutes prior to seizure induction, mice were administrated vehicle or compound B (n=12 per group). Each mouse was manually restrained and corneal stimulation (0.2 ms pulse, 6 Hz, 3 s) was performed at a current intensity of 17 mA (ECT Unit 57800; Ugo Basile, Comerio Italy). […]

α1/β2/γ2 GABAA receptor = target: T5, α1/β2/γ2 GABAA receptor (Homo sapiens, UniProt P14867+P18507+P47870); test: GABAA receptor activation in oocytes held at −70 mV; assay type: cell-based
T5 construct: expressed in transfected cells; host or cells: oocytes

Nav1.7 = Nav1.7 (Homo sapiens, UniProt Q15858); conditions: reported by other researchers; cited from earlier work
Chain of Nav1.7 (Q15858 whole entry): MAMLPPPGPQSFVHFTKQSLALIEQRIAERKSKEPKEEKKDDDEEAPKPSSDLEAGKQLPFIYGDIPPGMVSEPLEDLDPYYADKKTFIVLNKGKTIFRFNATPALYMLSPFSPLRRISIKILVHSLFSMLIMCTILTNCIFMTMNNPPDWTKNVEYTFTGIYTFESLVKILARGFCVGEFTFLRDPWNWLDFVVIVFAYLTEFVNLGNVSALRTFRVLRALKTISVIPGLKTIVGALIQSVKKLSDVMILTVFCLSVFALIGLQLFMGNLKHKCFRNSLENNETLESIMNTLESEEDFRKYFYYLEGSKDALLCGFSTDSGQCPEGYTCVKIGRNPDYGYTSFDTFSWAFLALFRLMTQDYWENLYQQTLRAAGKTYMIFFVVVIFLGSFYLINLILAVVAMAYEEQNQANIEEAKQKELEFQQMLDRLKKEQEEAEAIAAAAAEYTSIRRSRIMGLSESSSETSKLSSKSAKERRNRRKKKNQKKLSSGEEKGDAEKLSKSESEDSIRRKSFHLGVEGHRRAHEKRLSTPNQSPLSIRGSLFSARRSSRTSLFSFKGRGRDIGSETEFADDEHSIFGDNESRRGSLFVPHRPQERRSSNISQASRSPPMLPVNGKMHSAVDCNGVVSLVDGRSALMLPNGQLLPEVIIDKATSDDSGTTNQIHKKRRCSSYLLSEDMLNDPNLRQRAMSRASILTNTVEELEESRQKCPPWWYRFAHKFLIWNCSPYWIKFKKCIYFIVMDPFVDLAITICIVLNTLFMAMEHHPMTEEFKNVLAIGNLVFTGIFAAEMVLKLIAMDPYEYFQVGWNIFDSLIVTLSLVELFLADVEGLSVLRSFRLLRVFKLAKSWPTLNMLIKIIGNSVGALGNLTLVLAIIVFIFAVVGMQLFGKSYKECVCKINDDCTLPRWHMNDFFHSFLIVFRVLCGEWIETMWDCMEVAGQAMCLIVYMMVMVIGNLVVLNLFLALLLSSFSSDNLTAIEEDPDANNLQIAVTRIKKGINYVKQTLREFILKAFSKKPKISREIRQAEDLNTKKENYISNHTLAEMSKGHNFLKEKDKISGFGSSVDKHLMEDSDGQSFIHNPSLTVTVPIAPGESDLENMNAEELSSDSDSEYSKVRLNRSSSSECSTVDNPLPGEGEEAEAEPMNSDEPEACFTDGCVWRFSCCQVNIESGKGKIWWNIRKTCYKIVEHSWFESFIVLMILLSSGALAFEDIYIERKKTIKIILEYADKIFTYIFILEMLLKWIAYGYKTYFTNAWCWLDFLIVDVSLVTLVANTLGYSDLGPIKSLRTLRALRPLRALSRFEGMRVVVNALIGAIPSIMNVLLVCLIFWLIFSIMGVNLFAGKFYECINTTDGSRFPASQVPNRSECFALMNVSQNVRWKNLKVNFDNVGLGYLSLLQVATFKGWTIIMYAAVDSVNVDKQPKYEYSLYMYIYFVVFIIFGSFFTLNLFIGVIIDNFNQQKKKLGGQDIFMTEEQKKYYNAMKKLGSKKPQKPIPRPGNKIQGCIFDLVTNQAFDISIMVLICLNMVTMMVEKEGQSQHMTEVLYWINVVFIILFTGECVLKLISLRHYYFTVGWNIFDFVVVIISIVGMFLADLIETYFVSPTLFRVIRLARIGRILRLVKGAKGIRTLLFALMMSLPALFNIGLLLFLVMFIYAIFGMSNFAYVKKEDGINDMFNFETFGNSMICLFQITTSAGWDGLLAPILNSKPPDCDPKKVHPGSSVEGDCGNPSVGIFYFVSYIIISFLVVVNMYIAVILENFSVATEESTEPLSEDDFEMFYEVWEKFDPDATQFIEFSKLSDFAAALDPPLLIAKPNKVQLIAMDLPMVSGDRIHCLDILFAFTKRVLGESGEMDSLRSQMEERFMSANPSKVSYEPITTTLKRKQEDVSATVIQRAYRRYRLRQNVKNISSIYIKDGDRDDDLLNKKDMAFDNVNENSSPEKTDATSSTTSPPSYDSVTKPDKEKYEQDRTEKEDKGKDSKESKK

T5 sequence (P14867 28-456): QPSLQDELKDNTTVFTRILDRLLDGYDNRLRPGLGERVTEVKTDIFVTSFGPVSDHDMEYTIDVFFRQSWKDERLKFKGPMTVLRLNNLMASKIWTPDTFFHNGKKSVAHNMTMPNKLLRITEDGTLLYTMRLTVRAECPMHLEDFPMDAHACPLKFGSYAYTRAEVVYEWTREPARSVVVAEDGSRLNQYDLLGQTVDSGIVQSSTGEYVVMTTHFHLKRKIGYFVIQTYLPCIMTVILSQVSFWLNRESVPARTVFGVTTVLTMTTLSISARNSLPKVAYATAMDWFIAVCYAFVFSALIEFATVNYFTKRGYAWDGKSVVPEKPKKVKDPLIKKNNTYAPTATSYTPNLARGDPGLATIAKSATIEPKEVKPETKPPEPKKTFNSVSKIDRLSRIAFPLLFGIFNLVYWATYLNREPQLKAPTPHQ
T5 sequence (P47870 25-512 limits assumed): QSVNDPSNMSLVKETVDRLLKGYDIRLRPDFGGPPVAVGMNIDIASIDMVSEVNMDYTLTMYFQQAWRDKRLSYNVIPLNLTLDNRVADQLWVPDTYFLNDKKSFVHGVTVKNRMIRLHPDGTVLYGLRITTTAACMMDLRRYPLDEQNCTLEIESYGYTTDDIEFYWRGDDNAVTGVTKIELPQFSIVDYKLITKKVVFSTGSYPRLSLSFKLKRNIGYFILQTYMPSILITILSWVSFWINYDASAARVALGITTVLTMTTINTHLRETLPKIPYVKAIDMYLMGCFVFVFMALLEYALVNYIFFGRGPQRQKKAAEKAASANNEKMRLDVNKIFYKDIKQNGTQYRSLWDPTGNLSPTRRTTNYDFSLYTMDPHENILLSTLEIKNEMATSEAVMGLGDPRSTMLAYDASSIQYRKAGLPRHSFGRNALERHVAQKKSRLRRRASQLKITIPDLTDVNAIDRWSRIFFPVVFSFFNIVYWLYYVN
T5 sequence (P18507 40-475): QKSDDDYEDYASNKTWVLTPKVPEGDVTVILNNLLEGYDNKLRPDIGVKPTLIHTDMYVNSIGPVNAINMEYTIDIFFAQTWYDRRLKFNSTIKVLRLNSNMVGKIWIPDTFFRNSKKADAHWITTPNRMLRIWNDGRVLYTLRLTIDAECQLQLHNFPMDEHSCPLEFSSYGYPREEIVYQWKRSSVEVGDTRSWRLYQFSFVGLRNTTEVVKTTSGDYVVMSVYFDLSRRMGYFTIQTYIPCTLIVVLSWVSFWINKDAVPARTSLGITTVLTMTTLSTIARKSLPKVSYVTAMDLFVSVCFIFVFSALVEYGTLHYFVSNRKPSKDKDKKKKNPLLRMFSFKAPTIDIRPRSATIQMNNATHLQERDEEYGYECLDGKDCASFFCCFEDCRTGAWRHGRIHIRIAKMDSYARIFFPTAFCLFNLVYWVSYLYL

## 1-[(2,6-difluorophenyl)methyl]-1H-1,2,3-triazole-carboxymethyl-5-methyl [Compound L]
hNav1.3
  Effect on hNav1.3 opening/gating, in words: not significant
hNav1.1
  Effect on hNav1.1 opening (G/Gmax), in words: only slightly inhibits
hNav1.6; 100 μM
  Effect on hNav1.6 steady-state inactivation, in words: dramatically affect
hNav1.2
  Effect on hNav1.2 opening/gating, in words: not significant

## NC(=O)c1nnn(Cc2ccc(F)cc2)c1N [Compound D, 1-[(4-fluorophenyl)methyl]-1H-1,2,3-Triazole-4-carboxamide-5-amine]
hNav1.1
  Inactivation (V1/2) hNav1.1: −49.8 ± 1.6 mV
  Activation (V1/2) hNav1.1: −32.5 ± 2.3 mV
  Effect on hNav1.1 opening (G/Gmax), in words: not significant

## Cc1c(C(N)=O)nnn1Cc1ccccc1 [Compound B, 1-[phenyl-methyl]-1H-1,2,3-Triazole-4-carboxamide-5-methyl]
[1]
  Frequency of behavioral seizures versus vehicle, picrotoxin: no difference
[1]; p=0.3
  Average latency to forelimb clonus (FC) versus vehicle, picrotoxin: no statistically significant differences
[1]; p=0.4
  Average latency to first myoclonic jerk (MJ) versus vehicle, picrotoxin: no statistically significant differences
hNav1.3
  Inactivation (V1/2) hNav1.3: −50.0 ± 0.8 mV
  Activation (V1/2) hNav1.3: −25.8 ± 1.4 mV
  Effect on hNav1.3 opening/gating, in words: unaltered
[2]
  Average latency to MJ versus vehicle, flurothyl: comparable
hNav1.1
  Effect on hNav1.1 steady-state inactivation, in words: neither of these compounds influences
  Inactivation (V1/2) hNav1.1: −49.4 ± 0.3 mV^
  Activation (V1/2) hNav1.1: −27.4 ± 1.0 mV**
  Effect on hNav1.1 persistent current: neither of these compounds influences
  Depolarizing shift in hNav1.1 channel activation voltage: ~+11 mV
  Effect on hNav1.1 opening (G/Gmax), in words: clearly inhibit
hNav1.1; listed as compound B
  Effect on hNav1.1 persistent current: do not affect
[3]; 75 mg/kg ip
  Seizure severity (modified Racine scale) versus vehicle, 6 Hz: dramatically less severe
[3]; versus vehicle
  Reduction in the number of mice exhibiting seizures, 6 Hz: 63%
hNav1.6
  Inactivation (V1/2) hNav1.6: −62.6 ± 0.7 mV
  Activation (V1/2) hNav1.6: −23.8 ± 1.9 mV
hNav1.6; 100 μM, versus DMSO
  Effect on hNav1.6 opening/gating, in words: unaltered
hNav1.2
  Inactivation (V1/2) hNav1.2: −53.6 ± 1.2 mV
  Activation (V1/2) hNav1.2: −23.6 ± 1.1 mV
  Effect on hNav1.2 opening/gating, in words: unaltered
α1/β2/γ2 GABAA receptor; 100 μM
  Activation of α1/β2/γ2 GABAA receptor: do not activate

## NC(=O)c1cn(Cc2c(F)cccc2F)nn1 [Rufinamide, 1-[(2,6-difluorophenyl)methyl]-1H-1,2,3-Triazole-4-carboxamide, reference compound]
hNav1.3
  Inactivation (V1/2) hNav1.3: −52.6 ± 1.6 mV
  Activation (V1/2) hNav1.3: −24.5 ± 2.4 mV
  Effect on hNav1.3 opening/gating, in words: not inhibited
hNav1.1
  Effect on hNav1.1 steady-state inactivation, in words: not influenced
  Inactivation (V1/2) hNav1.1: −47.8 ± 1.6 mV
  Activation (V1/2) hNav1.1: −30.6 ± 0.9 mV**
  Effect on hNav1.1 persistent current: do not affect
  Effect on hNav1.1 opening (G/Gmax), in words: dramatic depolarizing shift
hNav1.6
  Inactivation (V1/2) hNav1.6: −60.0 ± 0.7 mV**
  Activation (V1/2) hNav1.6: −28.1 ± 0.8 mV
hNav1.6; 100 μM, versus DMSO
  Effect on hNav1.6 opening/gating, in words: not inhibited
hNav1.2
  Inactivation (V1/2) hNav1.2: −57.7 ± 0.5 mV
  Activation (V1/2) hNav1.2: −29.5 ± 1.2 mV
  Effect on hNav1.2 opening/gating, in words: not inhibited
Nav1.7
  Effect on Nav1.7 inactivated state: stabilizes the inactivated state
α1/β2/γ2 GABAA receptor; 100 μM
  Activation of α1/β2/γ2 GABAA receptor: do not activate

## OCc1cn(Cc2cccc(F)c2)nn1 [Compound C, 1-[(3-fluorophenyl)methyl]-1H-1,2,3-Triazole-4-hydroxymethyl]
hNav1.1
  Inactivation (V1/2) hNav1.1: −49.2 ± 0.6 mV
  Activation (V1/2) hNav1.1: −38.4 ± 1.3 mV
  Effect on hNav1.1 opening (G/Gmax), in words: no longer affects

## COC(=O)c1nnn(Cc2c(F)cccc2F)c1C [Compound L, 1-[(2,6-difluorophenyl)methyl]-1H-1,2,3-triazole-carboxymethyl-5-methyl]
hNav1.1
  Effect on hNav1.1 opening (G/Gmax), in words: much smaller compared to compound B
hNav1.6; 100 μM, versus DMSO
  Shift of hNav1.6 steady-state inactivation / channel availability midpoint: ~−20 mV

## NCc1cc(=O)[nH]o1 [muscimol]
α1/β2/γ2 GABAA receptor; 5 μM
  Activation of α1/β2/γ2 GABAA receptor: activates

## CCc1c(C(N)=O)nnn1Cc1ccccc1 [Compound F, 1-(phenylmethyl)-1H-1,2,3-triazole-4-carboxamide-5-ethyl]
hNav1.3
  Effect on hNav1.3 opening/gating, in words: not significant
hNav1.1
  Effect on hNav1.1 steady-state inactivation, in words: does not influence
  Effect on hNav1.1 persistent current: does not influence
  Depolarizing shift in hNav1.1 channel activation voltage: ~+12 mV
  Effect on hNav1.1 opening (G/Gmax), in words: inhibits hNav1.1 opening
hNav1.6; 100 μM, versus DMSO
  Effect on hNav1.6 opening/gating, in words: not significant
hNav1.2
  Effect on hNav1.2 opening/gating, in words: not significant

## NC(=O)c1nnn(Cc2cccc(F)c2)c1N [Compound A, 1-[(3-fluorophenyl)methyl]-1H-1,2,3-Triazole-4-carboxamide-5-amine]
hNav1.1
  Effect on hNav1.1 steady-state inactivation, in words: neither of these compounds influences
  Inactivation (V1/2) hNav1.1: −50.5 ± 1.2 mV^
  Activation (V1/2) hNav1.1: −30.8 ± 1.0 mV**
  Effect on hNav1.1 persistent current: neither of these compounds influences
  Effect on hNav1.1 opening (G/Gmax), in words: clearly inhibit
